In patent US6030960A, “Method of treating hepatitis virus infections” (priority 1998, dated 2000):
“And” between values parts separate entries of the source, which are not always exact repeats. Equal entries are not always repeated. Where two headings read alike, the source gives them in different places.

Legend:
Format in all cases: cell-based
[1] = system: Hepatitis B virus; assay: Effect of alkyl lipids on HBV replication in HBV persistently infected human HEP G2 cells (Table 6); conditions: 10 μM
Method in brief: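 Persistently HBV-infected HepG2 cells exposed to compound for nine days at 37 °C, intracellular HBV DNA analysed 24 h after day nine. Episomal 3.2-3.8 Kb genomes and replication intermediates normalized to integrated HBV DNA; virion DNA detection cut-off 0.1 pg DNA/ml culture medium.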

[2] = system: Hepatitis B virus; assay: Effects of CP-51 on HBV-induced DNA and RNA synthesis (Table 4); conditions: for mrna remaining at 10 µM / activity at 10 µM: Hepatitis B virus, HepG2, 216 h
Method: (§1) HEP-G2 cells persistently infected with HBV were treated daily with fresh D-MEM containing 20% FBS and 10 μM compound. After 9 days incubation and treatment, the overlay medium was harvested to assay the quantity of Hepatitis B virus s antigen (HBsAg) and HBeAg by EIA (Abbott Laboratories). The overlay medium was diluted to levels of antigen in the linear range of the assay. Standard curves using dilutions of positive HBsAg and HBeAg controls were included in each assay. Virion DNA was assayed using the method set forth in Korba and Gerin, Antiviral Res., 19, 5,5-70 (1992), incorporated by reference herein. HBV DNA was extracted from the overlay medium containing virus particles and analyzed by a slot-blot hybridization technique using ^32 P-labelled 3.2 Kb Eco R1 HBV DNA fragment by comparisons to HBV standards present on nitrocellulose filters using an AMBIS beta scanner. EC90 values (90% effective concentration, i.e., drug concentration which induces a 90% decrease in the levels of HBV DNA replication intermediates in treated versus control cells) were calculated by linear regression analysis. The relative levels of HBsAg, HBeAg and virion DNA were calulated as a percentage of the average levels obtained from the untreated controls.
Experiments were performed to determine the effects of CP-51 on HBV induced DNA and RNA syntheses. HEP-G2 cells persistently infected with HBV were treated daily with fresh D-MEM containing 20% FBS and 10 μM compound. After 9 days incubation and treatment the cells and overlay medium were harvested separately to assay the quantity of nucleic acids. Details of the methodology of the assays are given in Section B above. Extracellular virion DNA in untreated cells ranged from 50 to 150 pg/ml in the overlay medium. Intracellular HBV DNA replication intermediates (RI) in untreated cells ranged from 50 to 100 pg/μg cell DNA. Hybridization analysis results in about 1 pg intracellular HBV DNA/μg cellular DNA to 2-3 genomic copies per cell and 1.0 pg of extracellular HBV DNA/ml overlay medium to […] viral particles/ml. HBV RNA was analyzed by Northern blot hybridization analysis using a ^32 P-labeled 3.2 Kb gel-purified cloned genomic probe. Quantitive analysis of intracellular HBV DNA anc 14BV RNA was performed using an AMBIS beta scanner.

[3] = system: Hepatitis B virus; assay: Anti-hepatitis B virus activity in HEP-G2 cells persistently infected with HBV (Table 2); conditions: Hepatitis B virus, HepG2, 216 h
Method in brief: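 HBV-persistently infected HepG2 cells were dosed daily with 10 μM compound in 20% FBS medium for 9 days. Medium HBsAg and HBeAg were measured by EIA and virion DNA by slot-blot hybridisation, each relative to untreated controls. EC90 (90% drop in HBV DNA replication intermediates) came from linear regression.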

[4] = system: Hepatitis B virus; assay: Effect on synthesis of antigen markers in persistently infected human HEP G2 cell cultures (Table 7); conditions: nine days; for activity at 10 µM: Hepatitis B virus, HepG2, 216 h
Method in brief: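 Persistently infected HepG2 cells treated with compound for nine days at 37° C. Culture medium then harvested: HBsAg and HBeAg quantified by EIA, virion DNA by hybridisation-based DNA measurement. Sensitivity cut-off 0.1 pg DNA/ml medium.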

[5] = Cytotoxicity of alkyl lipids, neutral red dye uptake (Table 1); conditions: human, hep-g2 cells
Method in brief: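 HepG2 cells carrying tandem HBV genomes, with a G418-resistance plasmid, were given four serial compound concentrations in triplicate in RPMI-1640 for nine days at 37° C, with periodic medium replacement. Viability was measured by 0.01% neutral red uptake (A510) and expressed as percent of untreated control wells ±SD.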

[6] = system: Hepatitis B virus; assay: CP-51 against HBV-induced antigen syntheses in HEP-G2 cells persistently infected with HBV (Table 3); conditions: for activity at 10 µM: Hepatitis B virus, HepG2, 216 h
Method: as §1
In contrast, CP-51 inhibited HBeAg and HBcAg syntheses by 76 and 68%, respectively.

[7] = system: Hepatitis B virus; assay: Effect of alkyl lipid on HBV induction of antigen markers, DNA and RNA in persistently infected human HEP-G2 cell cultures (Table 8); conditions: Hepatitis B virus, HepG2, 216 h
Method: Further analyses were carried out with compound CP-51. Again, the cells were treated for nine days at 37° C. The overlay medium was harvested to measure levels of HBsAg, HBeAg, HBcAg, virion DNA, RI DNA and RNA levels. HBsAg and HBeAg were assayed by EIA (Abbott Laboratories). HBcAg was assayed by a solid phase EIA. HBV RNA was analyzed by Northern blot hybridization using a ^32 P-labelled 3.2 Kb genomic probe. Intracellular HBV RNA and RI HBV DNA was quantitated using a AMBIS beta scanner.

[8] = read-out: Relative Level of Total RNA
[9] = read-out: Relative Level of Virion DNA
[10] = read-out: Relative Level of HBeAg
[11] = read-out: Relative Level of HBsAg

Q: For `Nc1ccn([C@H]2CC[C@@H](CO)O2)c(=O)n1` [2',3'-dideoxycytidine, 2', 3'-dideoxycytidine, reference compound], which “HBV Virion DNA” value ([1]; Day 0) is on record?
A: 67 pg/ml Culture Medium and 64 pg/ml Culture Medium and 58 pg/ml Culture Medium and 59 pg/ml Culture Medium

Q: And the “HBV Virion DNA” value ([1]; Day 3)?
A: 49 pg/ml Culture Medium and 55 pg/ml Culture Medium and 50 pg/ml Culture Medium and 58 pg/ml Culture Medium

Q: And the “HBV Virion DNA” value ([1]; Day 6)?
A: 20 pg/ml Culture Medium and 18 pg/ml Culture Medium and 17 pg/ml Culture Medium and 15 pg/ml Culture Medium

Q: What about the “Intracellular HBV DNA, RI (replication intermediates)” value ([1]; nine days) of the same compound?
A: 8 pg/μg Cell DNA and 7 pg/μg Cell DNA and 9 pg/μg Cell DNA

Q: And the “effect on HBV-induced DNA and RNA syntheses” value ([2]; 10 μM, in words)?
A: inhibited HBV-induced DNA synthesis but not RNA syntheses

Q: And the mrna remaining at 10 µM ([2]; read-out: Relative Level of 2.1 Kb RNA)?
A: 105%

Q: What about the activity at 10 µM ([2]; read-out: Relative Level of 3.2 Kb DNA) of the same compound?
A: 46%

Q: What about the mrna remaining at 10 µM ([2]; read-out: Relative Level of 3.6 Kb RNA) of the same compound?
A: 92%

Q: And the activity at 10 µM ([2]; read-out: Relative Level of HBV RI)?
A: 6%

Q: What about the mrna remaining at 10 µM [2, 8] of the same compound?
A: 92%

Q: And the activity at 10 µM [2, 9]?
A: 2%

Q: What about the activity at 10 µM [3, 10] of the same compound?
A: 108%

Q: And the activity at 10 µM [3, 11]?
A: 106%

Q: And the activity at 10 µM [3, 9]?
A: 2%

Q: What about the “Relative Level of HBeAg” value ([4]; 10 μM, 12960 min) of the same compound?
A: 115 % of Untreated Control and 98 % of Untreated Control

Q: What about the “Relative Level of HBsAg” value ([4]; 10 μM, 12960 min) of the same compound?
A: 112 % of Untreated Control and 102 % of Untreated Control

Q: And the “Relative Level of Virion DNA” value ([4]; 10 μM, 12960 min)?
A: 2 % of Untreated Control

Q: And the activity at 10 µM ([4]; read-out: Relative Level of HBeAg, 10 μM)?
A: 101%

Q: What about the activity at 10 µM ([4]; read-out: Relative Level of HBsAg, 10 μM) of the same compound?
A: 100%

Q: And the activity at 10 µM ([4]; read-out: Relative Level of Virion DNA, 10 μM)?
A: 2%

Q: And the viability at 216 h, 3 µM [5]?
A: 100 ± 1%

Q: And the viability at 216 h, 10 µM [5]?
A: 102 ± 1%

Q: What about the viability at 216 h, 30 µM [5] of the same compound?
A: 99 ± 2%

Q: And the viability at 216 h, 100 µM [5]?
A: 35 ± 2%

Q: And the “inhibitory activity against HBV-induced antigen syntheses” value ([6]; 10 μM, in words)?
A: no inhibitory activity

Q: What about the activity at 10 µM ([6]; read-out: Relative Levels of HBcAg) of the same compound?
A: 102%

Q: And the activity at 10 µM ([6]; read-out: Relative Levels of HBeAg)?
A: 95%

Q: What about the activity at 10 µM ([6]; read-out: Relative Levels of HBsAg) of the same compound?
A: 96%

Q: And the activity at 10 µM ([7]; read-out: Relative Level of HBcAg)?
A: 102%

Q: What about the activity at 10 µM [7, 10] of the same compound?
A: 95%

Q: What about the activity at 10 µM [7, 11] of the same compound?
A: 96%

Q: And the activity at 10 µM ([7]; read-out: Relative Level of Intracellular HBV-DNA)?
A: 6%

Q: And the activity at 10 µM ([7]; read-out: Relative Level of RI DNA)?
A: 46%

Q: What about the activity at 10 µM [7, 8] of the same compound?
A: 92%

Q: What about the activity at 10 µM [7, 9] of the same compound?
A: 2%
